Source: patent US9790252B2, “2-fluorinated riboses and arabinoses and methods of use and synthesis” (CORNELL UNIVERSITY, priority 2009, dated 2017)

What was measured:
SirT2 = target: T1, SirT2 (Homo sapiens, UniProt Q8IXJ6); experiment: SirT2 activity assay (HPLC of 2′- and 3′-AADPR); assay type: biochemical; conditions: 800 μM NAD+, 500 μM H3 peptide, pH 7.5, 45 mins at 37° C.
T1 sequence (Q8IXJ6 1-389): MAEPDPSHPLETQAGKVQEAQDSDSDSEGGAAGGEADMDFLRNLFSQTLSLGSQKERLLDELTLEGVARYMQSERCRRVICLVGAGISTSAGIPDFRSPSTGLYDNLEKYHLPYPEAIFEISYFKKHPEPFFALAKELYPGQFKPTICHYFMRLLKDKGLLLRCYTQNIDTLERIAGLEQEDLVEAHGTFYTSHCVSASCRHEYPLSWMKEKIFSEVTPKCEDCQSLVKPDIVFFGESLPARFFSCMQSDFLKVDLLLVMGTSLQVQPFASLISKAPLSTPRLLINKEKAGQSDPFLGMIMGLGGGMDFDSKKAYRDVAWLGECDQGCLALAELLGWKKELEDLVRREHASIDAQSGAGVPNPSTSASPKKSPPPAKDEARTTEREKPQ
Description: (§1) Reactions containing 800 μM NAD^+, 500 μM H3 peptide, and 100 mM phosphate buffer at pH 7.5, with varying concentrations of 2′-deoxy-2′-fluoro-nucleosides or nucleotides were initiated by addition of SirT2 enzyme to a concentration of 16.6 μM. Reactions were incubated for 45 mins at 37° C. and quenched by addition of trifluoroacetic acid to pH 2. After centrifugation to remove precipitates, reactions were injected on HPLC for activity analysis. Production of 2′- and 3′-AADPR were analyzed at 260 nm.
as §1, with “SirT2 Activity Assay: Reactions containing” for “Reactions containing”, “concentrations of 2′-deoxy-2′-chloro-nucleosides were initiated” for “concentrations of 2′-deoxy-2′-fluoro-nucleosides or nucleotides were initiated”

Neuro2A cells = experiment: Toxicity to Neuro2A cells (MTT); assay type: cell-based; conditions: for 100 μM absorbance / 100 μM relative viability / 500 μM absorbance / 500 μM relative viability: 12 hours; for 100 μM absorbance / 500 μM absorbance: 570 nm
Description: 6. Neuro2A cells were seeded in 96-well plate at a density of 25,000 cells/well the day before the experiment starts;
7. After the cells reach 50˜60% confluency, media was taken out, and 100 μL of fresh media was added to each well;
8. […]
9. After 12 hours' incubation at 37° C., the media was taken out, 100 μL of fresh media was added to each well along with 20 μL of 5 mg/mL of MTT solution (in PBS);
10. After 1.5 hours' incubation at 37° C., media was taken out and 100 μL of DMSO was added to each well, the plate was mixed on shaker for 5 mins;
(§2) Absorbance was measured at 570 nm.
Assay for Determining Toxicity to HEK293 and Neuro2A Cells • 1. HEK293 and Neuro2A cells were seeded in 96-well plate at a density of 25,000 cells/well the day before the experiment starts; • 2. After the cells reach 50˜60% confluency, media was taken out, and 100 μL of fresh media was added to each well; • 3. […] After 12 hours' incubation at 37° C., the media was taken out, 100 μL of fresh media was added to each well along with 20 μL of 5 mg/mL of MTT solution (in PBS); • 5. After 2 hours' incubation at 37° C., media was taken out and 100 μL of DMSO was added to each well, the plate was mixed on shaker for 5 mins; • 6. Absorbance was measured at 570 nm.

HEK293 cells = experiment: Toxicity to HEK293 cells (MTT); assay type: cell-based; conditions: for 100 μM absorbance / 100 μM relative viability: HEK293, 100 μM; for 100 μM absorbance / 100 μM relative viability / 500 μM absorbance / 500 μM relative viability: 12 hours; for 100 μM absorbance / 500 μM absorbance: 570 nm; for 100 μM relative viability / 500 μM relative viability: control = 1; for 500 μM absorbance / 500 μM relative viability: HEK293, 500 μM
Description: 1. HEK293 cells were seeded in 96-well plate at a density of 25,000 cells/well the day before the experiment starts;
2. After the cells reach 50˜60% confluency, media was taken out, and 100 μL of fresh media was added to each well;
3. F-derivatives were plated at 100 and 500 μM (in duplicates) concentrations;
4. After 12 hours' incubation at 37° C., the media was taken out, 100 μL of fresh media was added to each well along with 20 μL of 5 mg/mL of MTT solution (in PBS);
5. After 1.5 hours' incubation at 37° C., media was taken out and 100 μL of DMSO was added to each well, the plate was mixed on shaker for 5 mins;
as §2
Assay for Determining Toxicity to HEK293 and Neuro2A Cells • 1. HEK293 and Neuro2A cells were seeded in 96-well plate at a density of 25,000 cells/well the day before the experiment starts; • 2. After the cells reach 50˜60% confluency, media was taken out, and 100 μL of fresh media was added to each well; • 3. Cl-derivatives were plated at 100 and 500 μM (in duplicates) concentrations; • 4. After 12 hours' incubation at 37° C., the media was taken out, 100 μL of fresh media was added to each well along with 20 μL of 5 mg/mL of MTT solution (in PBS); • 5. After 2 hours' incubation at 37° C., media was taken out and 100 μL of DMSO was added to each well, the plate was mixed on shaker for 5 mins; • 6. Absorbance was measured at 570 nm.

[1] = Mus musculus, N2a, 2′-deoxy-2′-fluoro-nucleosides and nucleotides
[2] = Homo sapiens, HEK293, HEK293, 2′-deoxy-2′-fluoro-nucleosides and nucleotides
[3] = MTT 2 hours, chloro-nucleosides
[4] = control = 1, chloro-nucleosides

SMILES | Ki (SirT2) [µM] | 100 μM absorbance (Neuro2A cells; MTT 1.5 hours) | 100 μM relative viability (Neuro2A cells; control = 1) | 500 μM absorbance (Neuro2A cells; MTT 1.5 hours) | 500 μM relative viability (Neuro2A cells; control = 1) | EC50 (Neuro2A cells; [1]) [µM] | 100 μM absorbance (HEK293 cells; MTT 1.5 hours) | 100 μM relative viability (HEK293 cells) | 500 μM absorbance (HEK293 cells; MTT 1.5 hours) | 500 μM relative viability (HEK293 cells) | EC50 (HEK293 cells; [2]) [µM] | further results
NC(=O)c1ccc[n+]([C@@H]2O[C@H](CO)C(O)C2F)c1 (some centres unmarked) [ara-F-NR, 1-(2′-deoxy-2′-fluoro-arabinofuranosyl)-nicotinamide] | 2300 | 2.0227 | 0.831 | 2.0666 | 0.849 | 3840 | 1.5325 | 0.6741 | 1.25 | 0.5499 | 550 | 
NC(=O)c1ccc[n+]([C@@H]2O[C@H](CO)[C@@H](O)C2(F)F)c1 [gem-diF-NR, 1-(2′-deoxy-2′,2′-difluoro-ribofuranosyl)-nicotinamide] |  | 0.8234 | 0.338 | 0.5374 | 0.221 | 61 | 1.679 | 0.7386 | 1.43 | 0.6289 | 846 | SirT2 Ki (SirT2): Ki = high mM
NC(=O)c1ccc[n+]([C@@H]2O[C@H](CO)C(O)C2Cl)c1 (stereo partly drawn) [β-ara-Cl-NR, 1-(2′-deoxy-2′-chloro-arabinofuranosyl)-nicotinamide] | 3200 |  |  |  |  |  |  |  |  |  |  | 100 μM absorbance (Neuro2A cells; [3]): 0; 100 μM relative viability (Neuro2A cells; [4]): 0; 500 μM absorbance (Neuro2A cells; [3]): 0; 500 μM relative viability (Neuro2A cells; [4]): 0; EC50 (Neuro2A cells; Mus musculus, N2a, 2′-deoxy-2′-chloro-nucleosides): 9 µM; 100 μM absorbance (HEK293 cells; [3]): 0; 100 μM relative viability (HEK293 cells; chloro-nucleosides): 0; 500 μM absorbance (HEK293 cells; [3]): 0; 500 μM relative viability (HEK293 cells; chloro-nucleosides): 0; EC50 (HEK293 cells; Homo sapiens, HEK293, HEK293, 2′-deoxy-2′-chloro-nucleosides): 5 µM

Now from value to compound, other results behind:

Ki (SirT2) [µM] | SMILES | 100 μM absorbance (Neuro2A cells; MTT 1.5 hours) | 100 μM relative viability (Neuro2A cells; control = 1) | 500 μM absorbance (Neuro2A cells; MTT 1.5 hours) | 500 μM relative viability (Neuro2A cells; control = 1) | EC50 (Neuro2A cells; [1]) [µM] | 100 μM absorbance (HEK293 cells; MTT 1.5 hours) | 100 μM relative viability (HEK293 cells) | 500 μM absorbance (HEK293 cells; MTT 1.5 hours) | 500 μM relative viability (HEK293 cells) | EC50 (HEK293 cells; [2]) [µM] | further results
162 | NC(=O)c1ccc[n+]([C@@H]2O[C@H](COP(=O)([O-])O)C(O)C2(F)F)c1 (some centres unmarked) [gem-diF-NMN, 2′-deoxy-2′,2′-difluoro-ribo-nicotinamide mononucleotide] | 1.0774 | 0.443 | 0.0217 | 0.009 | 64 | 1.559 | 0.6858 | 0 | 0 | 118 | 
450 | NC(=O)c1ccc[n+]([C@@H]2O[C@H](COP(=O)([O-])O)C(O)C2F)c1 (some centres unmarked) [ribo-F-NMN, 2′-deoxy-2′-fluoro-ribo-nicotinamide mononucleotide] | 2.2023 | 0.905 | 1.7872 | 0.735 |  | 1.2275 | 0.54 | 0.9845 | 0.4331 |  | EC50 (Neuro2A cells; 2′-deoxy-2′-fluoro-nucleosides and nucleotides): 1400 µM; EC50 (HEK293 cells; HEK293, 2′-deoxy-2′-fluoro-nucleosides and nucleotides): 241 µM
1730 | NC(=O)c1ccc[n+]([C@@H]2O[C@H](CO)C(O)[C@@H]2F)c1 (stereo partly drawn) [ribo-F-NR, 1-(2-deoxy-2-fluoro-D-ribofuranosyl)-nicotinamide] | 1.8769 | 0.771 | 0.8391 | 0.345 | 281 | 0.019 | 0.008358 | 0.0015 | 0.00066 | 17 | 
403 | NC(=O)c1ccc[n+]([C@@H]2O[C@H](CO)C(O)C2(Cl)Cl)c1 (stereo partly drawn) [β-gem-diCl-NR, 1-(2′-deoxy-2′,2′-dichloro-ribofuranosyl)-nicotinamide] |  |  |  |  |  |  |  |  |  |  | 100 μM absorbance (Neuro2A cells; [3]): 2.615; 100 μM relative viability (Neuro2A cells; [4]): 1.106; 500 μM absorbance (Neuro2A cells; [3]): 2.63; 500 μM relative viability (Neuro2A cells; [4]): 1.112; toxicity to Neuro2A (in words) (Neuro2A cells; at 500 μM): not toxic at 500 μM; 100 μM absorbance (HEK293 cells; [3]): 2.05; 100 μM relative viability (HEK293 cells; chloro-nucleosides): 0.8436; 500 μM absorbance (HEK293 cells; [3]): 1.63; 500 μM relative viability (HEK293 cells; chloro-nucleosides): 0.6708; kills % of HEK293 cells (HEK293 cells; HEK293, at 500 μM): kills 30% at 500 μM
